Experimental data: paper PMC8179679 (Chemical Science, 2021)
Where no end group is shown, it is not given here.

Experiments:
[1] = system: E5-p53TAD1/MDM2 interaction; settings: for number of translocation events, % of free E5-p53TAD1 peptide: molar ratio 1 : 3 : 5; for number of translocation events N after inhibitor addition: molar ratio 1 : 3 : 5 (peptide : MDM2 : inhibitor), 10 min-current trace
[2] = system: MDM2; settings: method not stated; cited from earlier work
[3] = target: aerolysin nanopore (Aeromonas hydrophila, UniProt P09167); assay: aerolysin nanopore single-channel recording of free analyte
Chain of aerolysin nanopore (P09167 24-445 limits assumed): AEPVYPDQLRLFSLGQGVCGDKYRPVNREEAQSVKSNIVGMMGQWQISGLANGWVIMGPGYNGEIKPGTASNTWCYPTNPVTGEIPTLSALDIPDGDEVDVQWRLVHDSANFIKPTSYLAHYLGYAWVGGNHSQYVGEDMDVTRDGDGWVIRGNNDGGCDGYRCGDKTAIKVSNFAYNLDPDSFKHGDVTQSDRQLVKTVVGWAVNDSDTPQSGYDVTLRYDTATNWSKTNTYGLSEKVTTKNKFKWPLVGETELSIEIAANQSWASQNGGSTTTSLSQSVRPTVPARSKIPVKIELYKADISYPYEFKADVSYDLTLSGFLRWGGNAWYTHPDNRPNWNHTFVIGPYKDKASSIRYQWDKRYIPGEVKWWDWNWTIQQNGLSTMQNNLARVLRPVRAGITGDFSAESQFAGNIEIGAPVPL

[4] = target: MDM2 (residues 3–109) (Homo sapiens, UniProt Q00987); assay: aerolysin nanopore detection of peptide/MDM2 interaction; assay type: binding
Chain of MDM2 (residues 3–109) (Q00987 3-109): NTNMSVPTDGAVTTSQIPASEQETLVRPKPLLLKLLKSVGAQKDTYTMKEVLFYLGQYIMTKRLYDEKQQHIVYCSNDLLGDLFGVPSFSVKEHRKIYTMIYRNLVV

CC(C)[C@@H](CS(=O)(=O)C(C)C)N1C(=O)[C@@](C)(CC(=O)O)C[C@H](c2cccc(Cl)c2)[C@H]1c1ccc(Cl)cc1 [AMG232]
number of translocation events, % of free E5-p53TAD1 peptide [1]: ~99.8%
number of translocation events N after inhibitor addition [1]: 1570

CN[C@@H](C)C(=O)N[C@H](C(=O)N1CCC[C@H]1c1nc(C(=O)c2ccc(F)cc2)cs1)C1CCCCC1 [LCL161]
MDM2 binding (in words) [2]: does not bind to MDM2

COc1ccc(C2=N[C@@H](c3ccc(Cl)cc3)[C@@H](c3ccc(Cl)cc3)N2C(=O)N2CCNC(=O)C2)c(OC(C)C)c1 [Nutlin-3]
number of translocation events, % of free E5-p53TAD1 peptide [1]: ~61.3%
number of translocation events N after inhibitor addition [1]: 965

EEEEESQETFSDLWKLLPEN [E5-p53TAD1]
number of nanopore events N ([3]; free E5-p53TAD1 peptide, 10 min-current trace): 1573
dwell time of short-lived translocation / nanopore events ([3]; free peptide): < 10^2 ms
mean dwell time td ([3]; free peptide, 140 mV, single exponential fit): ~0.8 ms
Kd [4]: 1070 ± 90 nM
dwell time of extraordinarily long-lived current blockage ([4]; E5-p53TAD1/MDM2 complex, 140 mV): 0.1 s ∼ tens of min
